PMC5318439, “The Novel Toll-Like Receptor 2 Agonist SUP3 Enhances Antigen Presentation and T Cell Activation by Dendritic Cells” (Frontiers in Immunology, 2017)
Where a SMILES comes first, the peptide text is derived from it. The star is where a group is joined. X1 = CCCCCCCCCCCCCCNC(=O)OC[C@H](C*)OC(=O)NCCCCCCCCCCCCCC; Palmitoyl = CCCCCCCCCCCCCCCC(=O)*

What was measured:
splenic CD11b^+ cDCs = test: CD86 expression on splenic CD11b+ cDCs after i.v. administration; assay type: in vivo, mice; settings: 2 nmol per mouse i.v., 1 h
Procedure: Figure 5 SUP3 enhanced antigen presentation ability of CD11b^+ conventional dendritic cells (cDCs) and production of antibodies against thymus-dependent (TD) antigens. (A) Mice were immunized by TD antigen nitrophenyl-keyhole limpet hemocyanin (NP-KLH) (5 µg per mouse) with or without SUP3 (2 nmol per mouse), Pam3 (2 nmol per mouse), or alum (3 µg per mouse) as adjuvants, respectively. Serum IgM (nitrophenyl 30mer-captured, NP30-captured), total IgG (NP30-captured), and high affinity IgG (nitrophenyl 8mer-captured, NP8-captured) specific to NP at indicated time points were examined by ELISA. […] Three days after immunization, division of OT-II CD4^+ T cells from inguinal lymph nodes were analyzed by flow cytometry (B). Absolute numbers of proliferated OT-II CD4^+ T cells were calculated in (C). […] Cells were then thoroughly washed and cocultured with CFSE-stained OT-II CD4^+ T cells for 4 days and analyzed by flow cytometry. (D) The division of OT-II cells was measured by reduced level of CFSE-labeling. (E) Absolute numbers of proliferated T cells from (D) were calculated. (F) SUP3 (2 nmol per mouse), Pam3 (2 nmol per mouse), or PBS were i.v. injected into mice for 1 h, and splenic CD11b^+ cDCs were enriched and analyzed for CD86 expression by flow cytometry. […] The cytokines from supernatant were determined by ELISA (*p < 0.05, **p < 0.01). […]

CD11b^+ cDCs = test: Cytokine production by purified CD11b+ cDCs (ELISA); assay type: cell-based, mice; settings: 200 nM, GM-CSF 20 ng/mL, 24 h, compared with CpG 20 nM
Procedure: Splenic DCs (5 × 10^5 cells/mL) were stimulated by Pam3 (200 nM), SUP3 (200 nM), or CpG ODN 1668 (20 nM; Adipogen IAX-200-001) in the GM-CSF (20 ng/mL) supplemented medium for indicated periods. Cell culture supernatants were harvested at indicated time points and stored at −40°C. RAW 264.7 cells and GMDCs were stimulated by lipopolysaccharide (LPS) (20 ng/mL; Adipogen IAX-100-013), Pam3, or SUP3 (both at 200 nM) for 24 h. For in vivo administration, Pam3 (2 nmol per mouse), SUP3 (2 nmol per mouse), or LPS (1 µg per mouse) were intravenously (i.v.) injected via tail veins. Serum was obtained through tail vein bleeding and centrifuged after coagulation and stored at −40°C. Cytokines (IL-6, eBioscience 88-7064; TNFα, eBioscience 88-7324; IL-12p40, BioLegend 431604), chemokine (MIP1α, R&D Systems DY450-05), and total IgM (eBioscience, 88-50470) were quantified by ELISA kits following the instructions of manufacturers.
Figure 5 SUP3 enhanced antigen presentation ability of CD11b^+ conventional dendritic cells (cDCs) and production of antibodies against thymus-dependent (TD) antigens. […] Three days after immunization, division of OT-II CD4^+ T cells from inguinal lymph nodes were analyzed by flow cytometry (B). Absolute numbers of proliferated OT-II CD4^+ T cells were calculated in (C). […] (D) The division of OT-II cells was measured by reduced level of CFSE-labeling. […]

splenic B cells = test: B cell activation markers in vitro; assay type: cell-based, mice; settings: 200 nM, 2 × 10^6 cells/mL, 24 h
Description: Splenic DCs were purified as described previously ([37]). CD8^+ cDCs expanded by B16-Flt3L inoculation were enriched, and then CD8^+ cDCs were positively sorted by MACS technology (Miltenyi Biotec). Splenic B cells were purified through negative selection by Streptavidin-MicroBeads (Miltenyi Biotec 130-048-102) combined with different antibodies cocktail to exclude non-B cells. The antibodies cocktail was composed of biotinylated antibodies against CD4 (T cells and DCs) (eBioscience, clone GK1.5), CD8 (T cells and DCs) (eBioscience, clone 53-6.7), CD43 (T cells, monocytes, granulocytes) (eBioscience, clone eBioR2/60), and Ter119 (erythrocytes) (eBioscience, clone TER119). B cells were further purified through MACS LS column (Miltenyi Biotec 130-042-401).
Figure 7 SUP3 promoted stronger B cell activation in vitro. Purified splenic B cells (2 × 10^6 cells/mL) were treated with SUP3 (200 nM), Pam3 (200 nM), or lipopolysaccharide (LPS) (1.5 µg/mL), respectively. (A) Surface CD25, CD40, and CD86 were stained 24 h post-stimulation. (B) Supernatants were harvested 3 or 5 days post-stimulation, and total IgM in the supernatant was determined by ELISA. Representative data was from two independent experiments with triplicated wells in each group (**p < 0.01).

| Molecule | CD86 on splenic CD11b+ cDC in vivo (splenic CD11b^+ cDCs) | IL-6, TNFα, and MIP1α production by CD11b+ cDCs (CD11b^+ cDCs) | CD25, CD40, and CD86 on B lymphocytes (splenic B cells) |
| --- | --- | --- | --- |
| Pam3CSK4 [reference compound] | CD86 upregulation | lower level | marked upregulation |
| CCCCCCCCCCCCCCCC(=O)N[C@@H](CSC[C@@H](COC(=O)NCCCCCCCCCCCCCC)OC(=O)NCCCCCCCCCCCCCC)C(=O)NCC(=O)N[C@@H](CCCCN)C(=O)N[C@@H](CCCCN)C(=O)N[C@@H](CCCCN)C(=O)O [SUP3, (2S,5S,8S,14R,18R)-2,5,8-tris(4-aminobutyl)-4,7,10,13,21-pentaoxo-14-palmitamido-18-((tetradecylcarbamoyl)oxy)-20-oxa-16-thia-3,6,9,12,22-pentaazahexatriacontan-1-oic acid] (Palmitoyl-C(X1)GKKK-OH) | CD86 upregulation | lower level | marked upregulation |
